Laboratory results from the supplement of paper PMC4862054.

How the values were obtained:
Settings in all cases: incubation time: 72 h
MDA-MB-453 [1] = test: normalised viability (% of control), CellTiter-Blue; higher = more viable cells (100 = DMSO, 0 = benzethonium chloride kill control)
Experimental: (§1)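 DSRT, CellTiter-Blue viability, 72 h incubation. Signal is normalised to DMSO and benzethonium chloride controls. Value is the normalised response at dose 1.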

Hs578T [2] = test: as above
Experimental: as §1

SK-BR-3 [3] = test: as above
Experimental: as §1

HDQ-P1 [4] = test: as above
Experimental: as §1

MDA-MB-436 [5] = test: as above
Experimental: as §1

CAL-51 [6] = test: as above
Experimental: as §1

HCC1143 [7] = test: as above
Experimental: as §1

MDA-MB-468 [8] = test: as above
Experimental: as §1

CAL-120 [9] = test: as above
Experimental: as §1

CAL-85-1 [10] = test: as above
Experimental: as §1

BT-474 [11] = test: as above
Experimental: as §1

BT-549 [12] = test: as above
Experimental: as §1

HCC1599 [13] = test: as above
Experimental: as §1

HCC1937 [14] = test: as above
Experimental: as §1

MFM-223 [15] = test: as above
Experimental: as §1

CAL-148 [16] = test: as above
Experimental: as §1

DU-4475 [17] = test: as above
Experimental: as §1

MDA-MB-231 [18] = test: as above
Experimental: as §1

MDA-MB-453 [19] = test: normalised response (% of control), CellTiter-Glo; higher = more viable cells (100 = DMSO, 0 = benzethonium chloride kill control)
In short: (§2)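 Values are normalised signals, each belonging to one concentration of the series. Breast cancer cells (20 µl suspension) were seeded into 384-well plates with compound at 5 concentrations in 10-fold steps over a compound-specific 10,000-fold range and incubated 72 h. Readouts were CellTox Green fluorescence (485/520 nm), then CellTiter-Glo luminescence after 10 min at room temperature, with each plate set to 0.1 % DMSO as 100 and a positive kill control as 0.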

Hs578T [20] = test: as above
In short: as §2

SK-BR-3 [21] = test: as above
In short: as §2

HDQ-P1 [22] = test: as above
In short: as §2

MDA-MB-436 [23] = test: as above
In short: as §2

CAL-51 [24] = test: as above
In short: as §2

HCC1143 [25] = test: as above
In short: as §2

MDA-MB-468 [26] = test: as above
In short: as §2

CAL-120 [27] = test: as above
In short: as §2

CAL-85-1 [28] = test: as above
In short: as §2

BT-474 [29] = test: as above
In short: as §2

BT-549 [30] = test: as above
In short: as §2

HCC1599 [31] = test: as above
In short: as §2

HCC1937 [32] = test: as above
In short: as §2

MFM-223 [33] = test: as above
In short: as §2

CAL-148 [34] = test: as above
In short: as §2

MCF-10A = test: as above
In short: as §2

DU-4475 [35] = test: as above
In short: as §2

MDA-MB-231 [36] = test: as above
In short: as §2

SMILES	normalised viability (MDA-MB-453 [1])	normalised viability (Hs578T [2])	normalised viability (SK-BR-3 [3])	normalised viability (HDQ-P1 [4])	normalised viability (MDA-MB-436 [5])	normalised viability (CAL-51 [6])	normalised viability (HCC1143 [7])	normalised viability (MDA-MB-468 [8])	normalised viability (CAL-120 [9])	normalised viability (CAL-85-1 [10])	normalised viability (BT-474 [11])	normalised viability (BT-549 [12])	normalised viability (HCC1599 [13])	normalised viability (HCC1937 [14])	normalised viability (MFM-223 [15])	normalised viability (CAL-148 [16])	normalised viability (DU-4475 [17])	normalised viability (MDA-MB-231 [18])	normalised response (MDA-MB-453 [19])	normalised response (Hs578T [20])	normalised response (SK-BR-3 [21])	normalised response (HDQ-P1 [22])	normalised response (MDA-MB-436 [23])	normalised response (CAL-51 [24])	normalised response (HCC1143 [25])	normalised response (MDA-MB-468 [26])	normalised response (CAL-120 [27])	normalised response (CAL-85-1 [28])	normalised response (BT-474 [29])	normalised response (BT-549 [30])	normalised response (HCC1599 [31])	normalised response (HCC1937 [32])	normalised response (MFM-223 [33])	normalised response (CAL-148 [34])	normalised response (MCF-10A)	normalised response (DU-4475 [35])	normalised response (MDA-MB-231 [36])
CC(C)(C)NC(=O)[C@H]1CC[C@H]2[C@@H]3CC[C@H]4NC(=O)C=C[C@]4(C)[C@H]3CC[C@]12C [Finasteride] (1 nM)	109%	108%	74.8%	133%	98.7%	108%	107%	105%	104%	97%	72.8%	93.1%	91.6%	100%	96.4%	110%	96.7%	108%	112%	104%	103%	102%	99.5%	94.5%	99%	104%	99.5%	96%	101%	103%	98.8%	96.1%	102%	103%	111%	102%	107%
Nc1ccn([C@@H]2O[C@H](CO)[C@@H](O)C2(F)F)c(=O)n1 [Gemcitabine] (0.1 nM)	109%	114%	102%	111%	108%	105%	101%	100%	96.5%	96.8%	87%	108%	89.4%	76.1%	101%	103%	93.5%	94.6%	107%	106%	93.4%	95.1%	102%	101%	92.6%	95.8%	93.6%	94.2%	97%	98.4%	97.4%	95.8%	94.5%	96%	99.7%	99.9%	94.5%
CC(C)C[C@H](NC(=O)[C@@H](COC(C)(C)C)NC(=O)[C@H](Cc1ccc(O)cc1)NC(=O)[C@H](CO)NC(=O)[C@H](Cc1c[nH]c2ccccc12)NC(=O)[C@H](Cc1cnc[nH]1)NC(=O)[C@@H]1CCC(=O)N1)C(=O)N[C@@H](CCCNC(=N)N)C(=O)N1CCC[C@H]1C(=O)NNC(N)=O [Goserelin] (1 nM)	102%	106%	93.3%	111%	102%	110%	94.3%	91.7%	104%	87.7%	82.1%	93.1%	114%	86.5%	96%	109%	99.3%	103%	108%	96.1%	96.8%	97.3%	102%	122%	96.7%	101%	99.6%	96.4%	99.2%	105%	96%	92.7%	96.7%	84.5%	94.8%	95.1%	103%
CC(=O)[C@]1(O)Cc2c(O)c3c(c(O)c2[C@@H](O[C@H]2C[C@H](N)[C@H](O)[C@H](C)O2)C1)C(=O)c1ccccc1C3=O [Idarubicin] (0.1 nM)	101%	112%	95.3%	115%	112%	102%	103%	130%	101%	95.7%	99.8%	109%	96.6%	92.9%	97%	102%	92.2%	78%	101%	107%	105%	101%	112%	101%	109%	112%	105%	102%	106%	105%	102%	100%	108%	110%	103%	103%	109%
